Experiments:
[1] = test system: wheat (Triticum aestivum L; TRZAS); test: Postemergence herbicidal safening, greenhouse, visual injury: wheat; format: in vivo
In short: (§1)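 Track-sprayer application, 187 L/ha, of Compound 1 (methyl ester, TEA or K salt) in two-way mixes with safeners, diluted from acetone/DMSO 97:3 stocks into 1.5% Agri-dex. Plants at 2–3 true leaves, sub-irrigated. Visual rating 0–100% vs solvent blank after 20-22 d.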

[2] = test system: barley (Hordeum vulgare L; HORVS); test: Postemergence herbicidal safening, greenhouse, visual injury: barley; format: in vivo; set-up: key to HORVS Ob (Observed values): % visual injury: 0 = no injury, 100 = complete kill
In short: as §1

[3] = test system: cleavers (Galium aparine L; GALAP); test: Postemergence herbicidal activity, greenhouse, visual injury: cleavers; format: in vivo; set-up: key: visual injury, 0–100%: 0 = no injury, 100 = complete kill
In short: (§2)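 Greenhouse, 18/17 °C, 14 h light; seedlings at 2–3 leaves; Compound 1 salts/ester ± safener in Agri-dex 1.5%, 187 L/ha overhead spray; sub-irrigation; visual % injury at 20-22 d; synergy via Colby.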

[4] = test system: kochia (Kochia scoparia L; KCHSC); test: Postemergence herbicidal activity, greenhouse, visual injury: kochia; format: in vivo; set-up: key: % visual injury: 0 = no injury, 100 = complete kill
Description: (§3) Evaluation of Postemergence Herbicidal Safening in Cereal Crops
(§4) Seeds of the desired test plant species were planted in Sun Gro MetroMix® 306 planting mixture, which typically has a pH of 6.0 to 6.8 and an organic matter content of about 30 percent, in plastic pots with a surface area of 103.2 square centimeters (cm^2). When required to ensure good germination and healthy plants, a fungicide treatment and/or other chemical or physical treatment was applied. The plants were grown for 7-36 days (d) in a greenhouse with an approximate 14-hour (h) photoperiod which was maintained at about 18° C. during the day and 17° C. during the night. Nutrients and water were added on a regular basis and supplemental lighting was provided with overhead metal halide 1000-Watt lamps as necessary. The plants were employed for testing when they reached the second or third true leaf stage.
(§5) Weighed amounts of esters (methyl) or salts (TEA [triethylammonium], K [potassium]) of 4-amino-3-chloro-6-(4-chloro-2-fluoro-3-methoxyphenyl)pyridine-2-carboxylic acid (Compound 1) were dissolved in a volume of 97:3 volume/volume (v/v) acetone/dimethylsulfoxide (DMSO) to obtain stock solutions. […] The concentrated stock solutions were diluted with an aqueous mixture of 1.5% v/v of Agri-dex crop oil concentrate to provide the appropriate application rates. Compound requirements are based upon a 12 mL application volume at a rate of 187 liters per hectare (L/ha). Stocks solutions of the safeners were prepared following the same procedure. Spray solutions of the safeners and experimental compound mixtures were prepared by adding the stock solutions to the appropriate amount of dilution solution to form a 12 mL spray solution with active ingredients in two-way combinations. Formulated compounds were applied to the plant material with an overhead Mandel track sprayer equipped with 8002E nozzles calibrated to deliver 187 L/ha over an application area of 0.503 square meters (m^2) at a spray height of 18 inches (43 centimeters (cm)) above average plant canopy. Control plants were sprayed in the same manner with the solvent blank.
(§6) The treated plants and control plants were placed in a greenhouse as described above and watered by sub-irrigation to prevent wash-off of the test compounds. After 20-22 d, the condition of the test plants as compared with that of the control plants was determined visually and scored on a scale of 0 to 100 percent where 0 corresponds to no injury and 100 corresponds to complete kill.
(§7) Colby's equation was used to determine the herbicidal effects expected from the mixtures (Colby, S. R. Calculation of the synergistic and antagonistic response of herbicide combinations. Weeds 1967, 15, 20-22.).
(§8) The following equation was used to calculate the expected activity of mixtures containing two active ingredients, A and B: Expected=A+B−(A×B/100)
(§9) A=observed efficacy of active ingredient A at the same concentration as used in the mixture.
(§10) B=observed efficacy of active ingredient B at the same concentration as used in the mixture.

[5] = test system: purple deadnettle (Lamium purpureum L; LAMPU); test: Postemergence herbicidal activity, greenhouse, visual injury: purple deadnettle; format: in vivo
In short: (§11)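 Injury was rated visually on a 0 (none) to 100% (complete kill) scale 20-22 d after treatment, relative to solvent-blank plants. Treatments were two-way safener/herbicide combinations in 1.5% v/v crop oil concentrate, applied overhead at 187 L/ha to plants at the 2nd–3rd true leaf stage. Colby's equation gave expected mixture effects.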

[6] = test system: scented mayweed (Matricaria chamomila L; MATCH); test: Postemergence herbicidal activity, greenhouse, visual injury: scented mayweed; format: in vivo; set-up: key: % visual injury: 0 = no injury, 100 = complete kill
Description: as §3, §4, §5, §6, §7, §8, §9, §10

[7] = test system: corn poppy (Papaver rhoeas L; PAPRH); test: Postemergence herbicidal activity, greenhouse, visual injury: corn poppy; format: in vivo
In short: as §11

[8] = test system: wild buckwheat (Polygonum convolvulus L; POLCO); test: Postemergence herbicidal activity, greenhouse, visual injury: wild buckwheat; format: in vivo
In short: as §2

[9] = test system: Russian thistle (Salsola iberica L; SASKR); test: Postemergence herbicidal activity, greenhouse, visual injury: Russian thistle; format: in vivo; set-up: key: visual injury, 0–100%: 0 = no injury, 100 = complete kill
In short: as §2

[10] = test system: chickweed (Stellaria media L; STEME); test: Postemergence herbicidal activity, greenhouse, visual injury: chickweed; format: in vivo; set-up: key: visual injury, 0–100%: 0 = no injury, 100 = complete kill
In short: as §2

[11] = test system: bird's-eye speedwell (Veronica persica L; VERPE); test: Postemergence herbicidal activity, greenhouse, visual injury: bird's-eye speedwell; format: in vivo; set-up: key: visual injury, 0–100%: 0 = no injury, 100 = complete kill
In short: as §2

[12] = test system: wild pansy (Viola tricolor L; VIOTR); test: Postemergence herbicidal activity, greenhouse, visual injury: wild pansy; format: in vivo; set-up: key: visual injury, 0–100%: 0 = no injury, 100 = complete kill
In short: as §11

[13] = test system: durum wheat (Triticum durum L; TRZDU); test: Postemergence herbicidal safening, greenhouse, visual injury: durum wheat; format: in vivo
In short: as §1

[14] = test system: wheat (Triticum aestivum L; TRZAW); test: Postemergence herbicidal safening, greenhouse, visual injury: wheat (TRZAW); format: in vivo
In short: as §1

barley (HORVW) = test: Postemergence herbicidal safening, greenhouse, visual injury: barley (HORVW)

With C=CCN(CC=C)C(=O)C(Cl)Cl [Dichlormid, N,N-diallyl-2,2-dichloroacetamide, reference compound] the “TRZAS Ob” value ([1]; applied alone at 17.5 g/ha) was 0%, the “TRZAS Ob” value ([1]; applied alone at 35 g/ha) was 0% and the “TRZAS Ob” value ([1]; applied alone at 70 g/ha) was 0%. For the same molecule, the “TRZAS Ob” value ([1]; applied alone at 140 g/ha) was 0%, the “HORVS Ob” value ([2]; applied alone at 17.5 g/ha) was 0% and the “HORVS Ob” value ([2]; applied alone at 35 g/ha) was 0%. For the same molecule, the “HORVS Ob” value ([2]; applied alone at 70 g/ha) was 0%, the “HORVS Ob” value ([2]; applied alone at 140 g/ha) was 0% and the “HORVS Ob (Observed values)” value ([2]; safener 4.4 g/ha alone) was 0. The “HORVS Ob (Observed values)” value ([2]; safener 8.8 g/ha alone) was 0, the “HORVS Ob (Observed values)” value ([2]; safener 17.5 g/ha alone) was 0 and the “HORVS Ob (Observed values)” value ([2]; safener 35 g/ha alone) was 0. For the same molecule, the “GALAP Ob” value ([3]; applied alone at 17.5 g/ha) was 0%, the “GALAP Ob” value ([3]; applied alone at 35 g/ha) was 0% and the “GALAP Ob” value ([3]; applied alone at 70 g/ha) was 0%. For the same molecule, the “GALAP Ob” value ([3]; applied alone at 140 g/ha) was 0%, the “KCHSC Ob” value ([4]; applied alone at 17.5 g/ha) was 0% and the “KCHSC Ob” value ([4]; applied alone at 35 g/ha) was 0%. The “KCHSC Ob” value ([4]; applied alone at 70 g/ha) was 0%, the “KCHSC Ob” value ([4]; applied alone at 140 g/ha) was 0% and the “LAMPU Ob” value ([5]; applied alone at 17.5 g/ha) was 0%. The “LAMPU Ob” value ([5]; applied alone at 35 g/ha) was 0%, the “LAMPU Ob” value ([5]; applied alone at 70 g/ha) was 0% and the “LAMPU Ob” value ([5]; applied alone at 140 g/ha) was 0%. The “LAMPU Ob (Observed values)” value ([5]; safener 4.4 g/ha alone) was 0, the “LAMPU Ob (Observed values)” value ([5]; safener 8.8 g/ha alone) was 0 and the “LAMPU Ob (Observed values)” value ([5]; safener 17.5 g/ha alone) was 0. For the same molecule, the “LAMPU Ob (Observed values)” value ([5]; safener 35 g/ha alone) was 0, the “MATCH Ob” value ([6]; applied alone at 17.5 g/ha) was 0% and the “MATCH Ob” value ([6]; applied alone at 35 g/ha) was 0%. The “MATCH Ob” value ([6]; applied alone at 70 g/ha) was 0%, the “MATCH Ob” value ([6]; applied alone at 140 g/ha) was 0% and the “PAPRH Ob” value ([7]; applied alone at 17.5 g/ha) was 0%. For the same molecule, the “PAPRH Ob” value ([7]; applied alone at 35 g/ha) was 0%, the “PAPRH Ob” value ([7]; applied alone at 70 g/ha) was 0% and the “PAPRH Ob” value ([7]; applied alone at 140 g/ha) was 0%. For the same molecule, the “PAPRH Ob (Observed values)” value ([7]; safener 4.4 g/ha alone) was 0, the “PAPRH Ob (Observed values)” value ([7]; safener 8.8 g/ha alone) was 0 and the “PAPRH Ob (Observed values)” value ([7]; safener 17.5 g/ha alone) was 0. For the same molecule, the “PAPRH Ob (Observed values)” value ([7]; safener 35 g/ha alone) was 0, the “POLCO Ob” value ([8]; applied alone at 17.5 g/ha) was 0% and the “POLCO Ob” value ([8]; applied alone at 35 g/ha) was 0%. For the same molecule, the “POLCO Ob” value ([8]; applied alone at 70 g/ha) was 0%, the “POLCO Ob” value ([8]; applied alone at 140 g/ha) was 0% and the “SASKR Ob” value ([9]; applied alone at 17.5 g/ha) was 0%. For the same molecule, the “SASKR Ob” value ([9]; applied alone at 35 g/ha) was 0%, the “SASKR Ob” value ([9]; applied alone at 70 g/ha) was 0% and the “SASKR Ob” value ([9]; applied alone at 140 g/ha) was 0%. The “STEME Ob” value ([10]; applied alone at 17.5 g/ha) was 0%, the “STEME Ob” value ([10]; applied alone at 35 g/ha) was 0% and the “STEME Ob” value ([10]; applied alone at 70 g/ha) was 0%. The “STEME Ob” value ([10]; applied alone at 140 g/ha) was 0%, the “VERPE Ob” value ([11]; applied alone at 17.5 g/ha) was 0% and the “VERPE Ob” value ([11]; applied alone at 35 g/ha) was 0%. For the same molecule, the “VERPE Ob” value ([11]; applied alone at 70 g/ha) was 0%, the “VERPE Ob” value ([11]; applied alone at 140 g/ha) was 0% and the “VIOTR Ob” value ([12]; applied alone at 17.5 g/ha) was 0%. The “VIOTR Ob” value ([12]; applied alone at 35 g/ha) was 0%, the “VIOTR Ob” value ([12]; applied alone at 70 g/ha) was 0% and the “VIOTR Ob” value ([12]; applied alone at 140 g/ha) was 0%. It also gave a TRZDU Ob (Observed values) ([13]; safener 4.4 g/ha alone) of 0%, a TRZDU Ob (Observed values) ([13]; safener 8.8 g/ha alone) of 0% and a TRZDU Ob (Observed values) ([13]; safener 17.5 g/ha alone) of 0%. For the same molecule, the TRZDU Ob (Observed values) ([13]; safener 35 g/ha alone) was 0%, the TRZAW Ob (Observed values) ([14]; safener 4.4 g/ha alone) was 0% and the TRZAW Ob (Observed values) ([14]; safener 8.8 g/ha alone) was 0%. The TRZAW Ob (Observed values) ([14]; safener 17.5 g/ha alone) was 0%, the TRZAW Ob (Observed values) ([14]; safener 35 g/ha alone) was 0% and the HORVW Ob (Observed values) (barley (HORVW); safener 4.4 g/ha alone) was 0%. It also gave an HORVW Ob (Observed values) (barley (HORVW); safener 8.8 g/ha alone) of 0%, an HORVW Ob (Observed values) (barley (HORVW); safener 17.5 g/ha alone) of 0% and an HORVW Ob (Observed values) (barley (HORVW); safener 35 g/ha alone) of 0%.
